According to patent US20210115104A1, “AMYLIN ANALOGUES” (Zealand Pharma A/S, priority 2015, published 2021):
*1 amine or outer side, *2 acyl side, *3 side chain or, on linkers, in order; H or OH if unused. Where a SMILES comes first, the peptide text is derived from it. Bridges are numbered along the chain shown (N, C = ends). [ ]: non-standard residue; d: D form. The star is where a group is joined. C20 diacid = O=C(O)CCCCCCCCCCCCCCCCCCC(=O)*; γGlu = O=C(O)[C@H](CCC(=O)[*:2])N[*:1]; NMeI = CC[C@H](C)[C@H](NC)C(=O)O; Sar = CNCC(=O)O

What was measured:
[1] = biological target: T1, human calcitonin receptor (hCTR2) (Homo sapiens, UniProt P30988); assay: hCTR2 cAMP assay (AlphaScreen) in COS7 cells; type: cell-based; conditions: cAMP induction, COS7 cells expressing hCTR2; Table 1; read-out: hCTR2 EC50
T1 construct: expressed in transfected cells
T1 sequence (P30988 25-474): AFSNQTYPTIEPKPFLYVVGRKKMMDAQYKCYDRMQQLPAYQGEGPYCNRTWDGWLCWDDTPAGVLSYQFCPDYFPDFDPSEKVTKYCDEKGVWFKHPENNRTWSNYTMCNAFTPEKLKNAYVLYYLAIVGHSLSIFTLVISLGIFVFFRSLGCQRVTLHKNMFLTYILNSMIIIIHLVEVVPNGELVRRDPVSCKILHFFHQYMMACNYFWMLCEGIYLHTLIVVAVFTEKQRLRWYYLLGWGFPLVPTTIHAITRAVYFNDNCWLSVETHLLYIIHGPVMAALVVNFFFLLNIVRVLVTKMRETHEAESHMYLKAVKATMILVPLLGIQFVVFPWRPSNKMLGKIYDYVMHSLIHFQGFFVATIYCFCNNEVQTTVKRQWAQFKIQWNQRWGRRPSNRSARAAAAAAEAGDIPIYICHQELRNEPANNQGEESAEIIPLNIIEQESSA
Method in brief: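 Stable hCTR2 clone in RAMP-naïve COS7 cells stimulated 15 min at 37 °C with increasing peptide concentrations in Tyrode buffer pH 7.4 containing IBMX and 0.1% casein. cAMP in lysates measured by AlphaScreen; EC50 from 4-parameter logistic fit.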

[2] = biological target: T2, human amylin receptor 3 (hAMYR3), hCTR2 co-expressed with hRAMP3 (Homo sapiens, UniProt O60896+P30988); assay: hAMYR3 cAMP assay (AlphaScreen) in COS7 cells; type: cell-based; conditions: cAMP induction, COS7 cells expressing hAMYR3; Table 1; read-out: hAMYR3 EC50
T2 construct: expressed in transfected cells
T2 sequence (P30988 25-474): T1 sequence (P30988 25-474)
T2 sequence (O60896 24-148 partner): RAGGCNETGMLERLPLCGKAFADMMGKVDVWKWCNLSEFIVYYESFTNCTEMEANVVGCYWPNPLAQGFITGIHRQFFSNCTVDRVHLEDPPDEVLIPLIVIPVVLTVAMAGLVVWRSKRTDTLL
Method in brief: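 Stable COS7 clone co-expressing hCTR2 and hRAMP3 was exposed to increasing peptide concentrations in Tyrode buffer (pH 7.4) with 100 µM IBMX and 0.1% casein for 15 min at 37 °C. Lysate cAMP was measured by AlphaScreen; EC50 came from 4-parameter logistic fitting.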

[3] = Assessment of chemical stability (RP-HPLC normalized purity); type: physicochemical; conditions: 7 days, 40° C., Table 1
Method in brief: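 Peptides at 0.2 mg/ml in water adjusted to pH 4, 6, 7.5 or 9, incubated at 40° C for 7 days. Main-peak area-% by RP-HPLC (C8 ammonium formate or C18 TFA gradient, UV 220 nm), normalized to T=0 as 100.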

[4] = Assessment of physical stability (Thioflavin T fibrillation); type: physicochemical; design: key: FND = fibrillation not detected; FD = fibrillation detected; conditions: 1 mg/ml, 40° C., ThT
Method in brief: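 1 mg/ml peptide with 40 μM ThT in 50 mM phosphate pH 7.0, 50 mM histidine pH 7.0 or 50 mM acetate pH 4.0, in triplicate. Fluorescence read every 10 min after 300 s agitation over 96 h at 40 °C. Lag-time (h) is the intersection of linear fits to stable and growth phases.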

SMILES: CC[C@H](C)[C@@H](C(=O)N[C@@H](CC(C)C)C(=O)N[C@@H](CO)C(=O)N[C@@H](CO)C(=O)N[C@H](C(=O)N[C@@H](CCC(=O)O)C(=O)N[C@H](C(=O)NCC(=O)N[C@@H](CO)C(=O)N[C@@H](CC(N)=O)C(=O)N[C@H](C(=O)N1CCC[C@H]1C(N)=O)[C@@H](C)O)C(C)C)[C@@H](C)O)N(C)C(=O)[C@H](C)NC(=O)CN(C)C(=O)[C@H](Cc1ccccc1)NC(=O)[C@H](CCCNC(=N)N)NC(=O)[C@H](CCC(N)=O)NC(=O)[C@H](CC(C)C)NC(=O)[C@H](Cc1ccccc1)NC(=O)[C@H](Cc1c[nH]cn1)NC(=O)[C@H](C)NC(=O)[C@H](CC(C)C)NC(=O)[C@H](CCCNC(=N)N)NC(=O)[C@H](CCC(=O)O)NC(=O)[C@@H](NC(=O)[C@H](C)NC(=O)[C@@H]1CSSC[C@H](NC(=O)[C@H](CCCNC(=N)N)NC(=O)CC[C@H](NC(=O)CCCCCCCCCCCCCCCCCCC(=O)O)C(=O)O)C(=O)N[C@@H](CCC(N)=O)C(=O)N[C@@H]([C@@H](C)O)C(=O)N[C@@H](C)C(=O)N[C@@H]([C@@H](C)O)C(=O)N1)[C@@H](C)O [Compound 96, [19CD]-isoGlu-R-C( )-QTAT-C( )-ATERLAHFLQRF-Gly(Me)-A-Ile(Me)-LSSTEVGSNTP-NH2] ({C20 diacid-γGlu}-RCQTATCATERLAHFLQRF[Sar]A[NMeI]LSSTEVGSNTP-NH2; disulfide 2-7)
- EC50 [1]: 0.33 nM
- EC50 [2]: 0.28 nM
- Normalized purity after 7 days, 40° C., pH 4 ([3]; pH 4, 0.2 mg/ml): A (A = >90%)
- Normalized purity after 7 days, 40° C., pH 6 ([3]; pH 6, 0.2 mg/ml): A (A = >90%)
- Normalized purity after 7 days, 40° C., pH 7.5 ([3]; pH 7.5, 0.2 mg/ml): A (A = >90%)
- Normalized purity after 7 days, 40° C., pH 9 ([3]; pH 9, 0.2 mg/ml): A (A = >90%)
- Fibrillation pH 4.0 (Ac) ([4]; 50 mM acetate buffer pH 4.0, 96 hours): FND
- Fibrillation pH 7.0 (His) ([4]; 50 mM histidine buffer pH 7.0, 96 hours): FND
- Fibrillation pH 7.0 (Phos.) ([4]; 50 mM phosphate buffer pH 7.0, 96 hours): FND
